Data taken from publication PMC5218480 (PLoS ONE, 2017).

Test system: MV-4-11 cells
Assay: Gene expression microarray analysis (Affymetrix PrimeView) and GSEA
Format: cell-based, human
Set-up: RFU PODN (11730768_x_at) / Fold change /veh PODN (11730768_x_at) / RFU LINC00158 (11744669_a_at) / Fold change /veh LINC00158 (11744669_a_at) / RFU DUSP10 (11751237_a_at) / Fold change /veh DUSP10 (11751237_a_at) / RFU ID3 (11757404_x_at) / Fold change /veh ID3 (11757404_x_at) / RFU PLEKHG5 (11737974_s_at) / Fold change /veh PLEKHG5 (11737974_s_at) / RFU LRRC4B (11730491_at) / Fold change /veh LRRC4B (11730491_at) / RFU GIMAP4 (11747438_a_at) / Fold change /veh GIMAP4 (11747438_a_at) / RFU KRT8 (11758183_x_at) / Fold change /veh KRT8 (11758183_x_at) / RFU CNN1 (11734310_a_at) / Fold change /veh CNN1 (11734310_a_at) / RFU VPS37D (11726825_at) / Fold change /veh VPS37D (11726825_at) / RFU C10orf10 (11716522_x_at) / Fold change /veh C10orf10 (11716522_x_at) / RFU KIR2DL2 /// KIR2DL4 /// KIR2DL5A /// KIR2DL5B /// KIR2DS1 /// KIR2DS2 /// KIR2DS3 /// KIR2DS4 /// KIR3DL3 /// KIR3DL3 /// KIR3DS1 (11738374_at) / Fold change /veh KIR2DL2 /// KIR2DL4 /// KIR2DL5A /// KIR2DL5B /// KIR2DS1 /// KIR2DS2 /// KIR2DS3 /// KIR2DS4 /// KIR3DL3 /// KIR3DL3 /// KIR3DS1 (11738374_at) / RFU C1QL1 (11718748_at) / Fold change /veh C1QL1 (11718748_at) / RFU TMPRSS4 (11747572_a_at) / Fold change /veh TMPRSS4 (11747572_a_at) / RFU HAMP (11756126_x_at) / Fold change /veh HAMP (11756126_x_at) / RFU RNFT2 (11725882_a_at) / Fold change /veh RNFT2 (11725882_a_at) / RFU NR4A2 (11747474_a_at) / Fold change /veh NR4A2 (11747474_a_at) / RFU ABCC12 (11746883_a_at) / Fold change /veh ABCC12 (11746883_a_at) / RFU TMEM136 (11760407_x_at) / Fold change /veh TMEM136 (11760407_x_at) / RFU CLDN22 /// WWC2 (11732394_at) / Fold change /veh CLDN22 /// WWC2 (11732394_at) / RFU HLA-DPB1 (11760878_x_at) / Fold change /veh HLA-DPB1 (11760878_x_at) / RFU SPINT1 (11716480_a_at) / Fold change /veh SPINT1 (11716480_a_at) / RFU GAP43 (11754022_s_at) / Fold change /veh GAP43 (11754022_s_at) / RFU A4GNT (11735810_at) / Fold change /veh A4GNT (11735810_at) / RFU PRB3 (11715151_x_at) / Fold change /veh PRB3 (11715151_x_at) / RFU TUBB4B (11761932_at) / Fold change /veh TUBB4B (11761932_at) / RFU CAPN14 (11732068_a_at) / Fold change /veh CAPN14 (11732068_a_at) / RFU TMCC2 (11721928_a_at) / Fold change /veh TMCC2 (11721928_a_at) / RFU IRGQ (11745062_a_at) / Fold change /veh IRGQ (11745062_a_at) / RFU FAM174B (11720279_a_at) / Fold change /veh FAM174B (11720279_a_at) / RFU TMPRSS4 (11748680_a_at) / Fold change /veh TMPRSS4 (11748680_a_at) / RFU FAM212B (11763350_a_at) / Fold change /veh FAM212B (11763350_a_at) / RFU PLEKHG5 (11743358_a_at) / Fold change /veh PLEKHG5 (11743358_a_at) / RFU ZSCAN30 (11745921_a_at) / Fold change /veh ZSCAN30 (11745921_a_at) / RFU CMKLR1 (11741424_a_at) / Fold change /veh CMKLR1 (11741424_a_at) / RFU LOC101060620 /// MAPK8IP1 (11723275_at) / Fold change /veh LOC101060620 /// MAPK8IP1 (11723275_at) / RFU SPTSSB (11747773_x_at) / Fold change /veh SPTSSB (11747773_x_at) / RFU PRSS12 (11739890_at) / Fold change /veh PRSS12 (11739890_at) / RFU BIN1 (11741810_x_at) / Fold change /veh BIN1 (11741810_x_at) / RFU WNT11 (11732464_a_at) / Fold change /veh WNT11 (11732464_a_at) / RFU C10orf10 (11716521_a_at) / Fold change /veh C10orf10 (11716521_a_at) / RFU C5orf56 (11738089_at) / Fold change /veh C5orf56 (11738089_at) / RFU CYB561 (11721691_x_at) / Fold change /veh CYB561 (11721691_x_at) / RFU ANKRD19P (11752326_a_at) / Fold change /veh ANKRD19P (11752326_a_at) / RFU OR2T12 /// OR2T33 /// OR2T8 (11738714_s_at) / Fold change /veh OR2T12 /// OR2T33 /// OR2T8 (11738714_s_at) / RFU VCAN (11748164_a_at) / Fold change /veh VCAN (11748164_a_at) / RFU JSRP1 (11732532_at) / Fold change /veh JSRP1 (11732532_at) / RFU KRTAP10-11 (11738290_x_at) / Fold change /veh KRTAP10-11 (11738290_x_at) / RFU MYO3A (11730013_a_at) / Fold change /veh MYO3A (11730013_a_at) / RFU EBF3 (11725865_a_at) / Fold change /veh EBF3 (11725865_a_at) / RFU CAMK2N1 (11719241_x_at) / Fold change /veh CAMK2N1 (11719241_x_at) / RFU C5orf56 (11738088_a_at) / Fold change /veh C5orf56 (11738088_a_at) / RFU OLFML3 (11715873_a_at) / Fold change /veh OLFML3 (11715873_a_at) / RFU LOC100653217 /// NTM (11731650_a_at) / Fold change /veh LOC100653217 /// NTM (11731650_a_at) / RFU MAPK11 (11762145_a_at) / Fold change /veh MAPK11 (11762145_a_at) / RFU FIZ1 (11724087_x_at) / Fold change /veh FIZ1 (11724087_x_at) / RFU OASL (11726364_x_at) / Fold change /veh OASL (11726364_x_at) / RFU SOX15 (11748057_x_at) / Fold change /veh SOX15 (11748057_x_at) / RFU CD79A (11719716_a_at) / Fold change /veh CD79A (11719716_a_at) / RFU HIST1H1D (11736915_at) / Fold change /veh HIST1H1D (11736915_at) / RFU CASKIN2 (11723855_a_at) / Fold change /veh CASKIN2 (11723855_a_at) / RFU LOC730098 (11760151_x_at) / Fold change /veh LOC730098 (11760151_x_at) / RFU OR4N2 (11742367_at) / Fold change /veh OR4N2 (11742367_at) / RFU PRRT2 (11749266_a_at) / Fold change /veh PRRT2 (11749266_a_at) / RFU SNX32 (11753110_a_at) / Fold change /veh SNX32 (11753110_a_at) / RFU CDHR5 (11726645_a_at) / Fold change /veh CDHR5 (11726645_a_at) / RFU RCAN1 (11760418_a_at) / Fold change /veh RCAN1 (11760418_a_at) / RFU FAM167A (11723789_a_at) / Fold change /veh FAM167A (11723789_a_at) / RFU FAM26E (11764081_at) / Fold change /veh FAM26E (11764081_at) / RFU ISYNA1 (11749810_s_at) / Fold change /veh ISYNA1 (11749810_s_at) / RFU ACY1 (11761880_at) / Fold change /veh ACY1 (11761880_at) / RFU 11764098_at / Fold change /veh 11764098_at / RFU SAMD14 (11745864_x_at) / Fold change /veh SAMD14 (11745864_x_at) / RFU NPB (11741838_a_at) / Fold change /veh NPB (11741838_a_at) / RFU TMPRSS6 (11731388_a_at) / Fold change /veh TMPRSS6 (11731388_a_at) / RFU KRTAP10-2 (11738614_at) / Fold change /veh KRTAP10-2 (11738614_at) / RFU ARHGAP8 /// PRR5-ARHGAP8 (11727945_x_at) / Fold change /veh ARHGAP8 /// PRR5-ARHGAP8 (11727945_x_at) / RFU KRTAP5-7 /// NADSYN1 (11734609_at) / Fold change /veh KRTAP5-7 /// NADSYN1 (11734609_at) / RFU RASL12 (11751679_a_at) / Fold change /veh RASL12 (11751679_a_at) / RFU CDKN2B (11736163_a_at) / Fold change /veh CDKN2B (11736163_a_at) / RFU PRF1 (11729649_at) / Fold change /veh PRF1 (11729649_at) / RFU, ZNF638 /// ZNF638-IT1 / Fold change vs veh, ZNF638 /// ZNF638-IT1 / RFU, PANK3 / Fold change vs veh, PANK3 / RFU, SH3YL1 / Fold change vs veh, SH3YL1 / RFU, ZEB2 / Fold change vs veh, ZEB2 / RFU, NRIP1 / Fold change vs veh, NRIP1 / RFU, PTTG1IP / Fold change vs veh, PTTG1IP / RFU, CAPN2 / Fold change vs veh, CAPN2 / RFU, MED14 / Fold change vs veh, MED14 / RFU, SNORA58 / Fold change vs veh, SNORA58 / RFU, C1orf63 / Fold change vs veh, C1orf63 / RFU, LRRFIP1 / Fold change vs veh, LRRFIP1 / RFU, NDUFAF7 / Fold change vs veh, NDUFAF7 / RFU, SLC12A2 / Fold change vs veh, SLC12A2 / RFU, IBTK / Fold change vs veh, IBTK / RFU, ESF1 / Fold change vs veh, ESF1 / Fold change vs veh, TMEM50B / RFU, TAOK1 / Fold change vs veh, TAOK1 / RFU, ACBD3 / Fold change vs veh, ACBD3 / RFU, TMA16 / Fold change vs veh, TMA16 / RFU, RWDD3 / Fold change vs veh, RWDD3 / RFU, BCAT1 / Fold change vs veh, BCAT1 / RFU, EDEM3 / Fold change vs veh, EDEM3 / RFU, TMEM33 / Fold change vs veh, TMEM33 / RFU, WDR75 / Fold change vs veh, WDR75 / RFU, AHCTF1 / Fold change vs veh, AHCTF1 / RFU, TFRC / Fold change vs veh, TFRC / RFU, ZDHHC17 / Fold change vs veh, ZDHHC17 / RFU, NOM1 / Fold change vs veh, NOM1 / RFU, ARL8B / Fold change vs veh, ARL8B / RFU, ZBTB11 / Fold change vs veh, ZBTB11 / RFU, TAMM41 / Fold change vs veh, TAMM41 / RFU, KIAA1704 /// LOC100996395 / Fold change vs veh, KIAA1704 /// LOC100996395 / RFU, ING1 / Fold change vs veh, ING1 / RFU, TRMT61B / Fold change vs veh, TRMT61B / RFU, FUBP3 / Fold change vs veh, FUBP3 / RFU, TP53 / Fold change vs veh, TP53 / RFU, TNKS2 / Fold change vs veh, TNKS2 / RFU, ZFP14 / Fold change vs veh, ZFP14 / RFU, ACTR2 / Fold change vs veh, ACTR2 / RFU, PPP3R1 / Fold change vs veh, PPP3R1 / RFU, PIK3R1 / Fold change vs veh, PIK3R1 / RFU, HNRNPA1 / Fold change vs veh, HNRNPA1 / RFU, RNF170 / Fold change vs veh, RNF170 / RFU, ZNF28 / Fold change vs veh, ZNF28 / RFU, RNGTT / Fold change vs veh, RNGTT / RFU, OGT / Fold change vs veh, OGT / RFU, BRD1 / Fold change vs veh, BRD1 / RFU, MARS / Fold change vs veh, MARS / RFU, ZNF655 / Fold change vs veh, ZNF655 / RFU, FAHD1 / Fold change vs veh, FAHD1 / RFU, BDP1 / Fold change vs veh, BDP1 / RFU, LRRCC1 / Fold change vs veh, LRRCC1 / RFU, ARID1A / Fold change vs veh, ARID1A / RFU, ZNF146 / Fold change vs veh, ZNF146 / RFU, ZNF330 / Fold change vs veh, ZNF330 / RFU, GPN3 / Fold change vs veh, GPN3 / RFU, C9orf123 / Fold change vs veh, C9orf123 / RFU, N4BP2L2 / Fold change vs veh, N4BP2L2 / RFU, ARFIP1 / Fold change vs veh, ARFIP1 / RFU, FAM179B / Fold change vs veh, FAM179B / RFU, BCL10 / Fold change vs veh, BCL10 / RFU, UHRF1BP1L / Fold change vs veh, UHRF1BP1L / RFU, BET1 / Fold change vs veh, BET1 / RFU, CNOT2 / Fold change vs veh, CNOT2 / RFU, ZNF268 / Fold change vs veh, ZNF268 / Fold change vs veh, ZNF507 / RFU, DGCR2 / Fold change vs veh, DGCR2 / RFU, WDSUB1 / Fold change vs veh, WDSUB1 / Fold change vs veh, HSP90B1 /// MIR3652 / RFU, ADSS / Fold change vs veh, ADSS / RFU, GK / Fold change vs veh, GK / RFU, ZNF148 / Fold change vs veh, ZNF148 / RFU, TAF9 / Fold change vs veh, TAF9 / RFU, SLC1A5 / Fold change vs veh, SLC1A5 / RFU, SLMO2 / Fold change vs veh, SLMO2 / RFU, ABCC4 / Fold change vs veh, ABCC4 / RFU, LOC101060439 /// RAP1B / Fold change vs veh, LOC101060439 /// RAP1B / RFU, RFX7 / Fold change vs veh, RFX7 / RFU, GTPBP10 / Fold change vs veh, GTPBP10 / RFU, CNEP1R1 / Fold change vs veh, CNEP1R1 / RFU, BIVM-ERCC5 /// ERCC5 / Fold change vs veh, BIVM-ERCC5 /// ERCC5 / RFU, ILF3 / Fold change vs veh, ILF3 / RFU 11762660_at / Fold change /veh 11762660_at / RFU VCAN (11757783_s_at) / Fold change /veh VCAN (11757783_s_at) / RFU DDX43 (11728927_at) / Fold change /veh DDX43 (11728927_at) / RFU KRT8 (11758188_x_at) / Fold change /veh KRT8 (11758188_x_at) / RFU NKD1 (11759106_at) / Fold change /veh NKD1 (11759106_at) / RFU SRD5A1 (11742802_a_at) / Fold change /veh SRD5A1 (11742802_a_at) / RFU TPSAB1 /// TPSB2 (11721975_s_at) / Fold change /veh TPSAB1 /// TPSB2 (11721975_s_at) / RFU GSTM3 (11746129_a_at) / Fold change /veh GSTM3 (11746129_a_at) / RFU IL23R (11737362_x_at) / Fold change /veh IL23R (11737362_x_at) / RFU TMEM51 (11727254_a_at) / Fold change /veh TMEM51 (11727254_a_at) / RFU PIWIL2 (11732686_x_at) / Fold change /veh PIWIL2 (11732686_x_at) / RFU ORM1 (11744905_x_at) / Fold change /veh ORM1 (11744905_x_at) / RFU CCDC152 (11743942_at) / Fold change /veh CCDC152 (11743942_at) / RFU ECM1 (11717891_a_at) / Fold change /veh ECM1 (11717891_a_at) / RFU IL23R (11748794_a_at) / Fold change /veh IL23R (11748794_a_at) / RFU TNFAIP8L3 (11732012_x_at) / Fold change /veh TNFAIP8L3 (11732012_x_at) / RFU MBOAT4 (11741988_at) / Fold change /veh MBOAT4 (11741988_at) / RFU 11764193_at / Fold change /veh 11764193_at / RFU TMEM53 (11763286_at) / Fold change /veh TMEM53 (11763286_at) / RFU MAGEB2 (11727129_at) / Fold change /veh MAGEB2 (11727129_at) / RFU TMEM200A (11744735_a_at) / Fold change /veh TMEM200A (11744735_a_at) / RFU CCDC152 (11751479_a_at) / Fold change /veh CCDC152 (11751479_a_at) / RFU FAM211A (11726209_a_at) / Fold change /veh FAM211A (11726209_a_at) / RFU RGS16 (11746705_a_at) / Fold change /veh RGS16 (11746705_a_at) / RFU VCAN (11755009_s_at) / Fold change /veh VCAN (11755009_s_at) / RFU RHOB (11743442_s_at) / Fold change /veh RHOB (11743442_s_at) / RFU RGS16 (11720943_a_at) / Fold change /veh RGS16 (11720943_a_at) / RFU RGS16 (11720944_at) / Fold change /veh RGS16 (11720944_at) / RFU, VPS4B / Fold change vs veh, VPS4B / RFU, CREB1 / Fold change vs veh, CREB1 / RFU, DNAJC13 / Fold change vs veh, DNAJC13 / RFU, GNAQ / Fold change vs veh, GNAQ / RFU, CDK5R1 / Fold change vs veh, CDK5R1 / RFU, ZRANB3 / Fold change vs veh, ZRANB3 / RFU, CUL4A / Fold change vs veh, CUL4A / RFU, CCNY / Fold change vs veh, CCNY / RFU, UFL1 / Fold change vs veh, UFL1 / RFU, COG3 / Fold change vs veh, COG3 / RFU, DIAPH2 / Fold change vs veh, DIAPH2 / RFU, SKA2 / Fold change vs veh, SKA2 / RFU, AFF3 / Fold change vs veh, AFF3 / RFU, LMF1 / Fold change vs veh, LMF1 / RFU, IPO11 / Fold change vs veh, IPO11 / RFU, DFFB / Fold change vs veh, DFFB / RFU, FOXP1 / Fold change vs veh, FOXP1 / RFU, CARD8 / Fold change vs veh, CARD8 / RFU, STRN3 / Fold change vs veh, STRN3 / RFU, ADK / Fold change vs veh, ADK / RFU, RASSF2 / Fold change vs veh, RASSF2 / RFU, WIPF1 / Fold change vs veh, WIPF1 / RFU, LARP1B / Fold change vs veh, LARP1B / RFU, RASA1 / Fold change vs veh, RASA1 / RFU, RB1 / Fold change vs veh, RB1 / RFU, PPFIA1 / Fold change vs veh, PPFIA1 / RFU, MAT2A / Fold change vs veh, MAT2A / RFU, CCT5 / Fold change vs veh, CCT5 / RFU, WDR92 / Fold change vs veh, WDR92 / RFU, CUX1 / Fold change vs veh, CUX1 / RFU, TTC7A / Fold change vs veh, TTC7A / RFU, TMEM135 / Fold change vs veh, TMEM135 / RFU, DEPTOR / Fold change vs veh, DEPTOR / RFU, CPM / Fold change vs veh, CPM / RFU, DNAJB6 / Fold change vs veh, DNAJB6 / RFU, CACNA2D3 / Fold change vs veh, CACNA2D3 / RFU, DTX4 / Fold change vs veh, DTX4 / RFU, TFCP2 / Fold change vs veh, TFCP2 / RFU, GMCL1 /// GMCL1P1 / Fold change vs veh, GMCL1 /// GMCL1P1 / RFU, AEBP2 / Fold change vs veh, AEBP2 / RFU, SNHG1 /// SNORD22 /// SNORD25 /// SNORD26 /// SNORD27 /// SNORD28 /// SNORD29 /// SNORD31 / Fold change vs veh, SNHG1 /// SNORD22 /// SNORD25 /// SNORD26 /// SNORD27 /// SNORD28 /// SNORD29 /// SNORD31 / Fold change (Aza/veh), C12orf56 (ProbeSet 11735607_a_at) / Fold change (ACY-1035/veh), C12orf56 (ProbeSet 11735607_a_at) / Fold change (Aza/veh), FGFR1OP (ProbeSet 11751329_s_at) / Fold change (ACY-1035/veh), FGFR1OP (ProbeSet 11751329_s_at) / Fold change (Aza/veh), VPS36 (ProbeSet 11739960_a_at) / Fold change (ACY-1035/veh), VPS36 (ProbeSet 11739960_a_at) / RFU SYPL1 (11715823_x_at) / Fold change /veh SYPL1 (11715823_x_at) / RFU IGFBP7 (11715501_s_at) / Fold change /veh IGFBP7 (11715501_s_at) / RFU REEP3 (11722064_at) / Fold change /veh REEP3 (11722064_at) / RFU IGLL1 (11728026_x_at) / Fold change /veh IGLL1 (11728026_x_at): dose or concentration left out as unconfirmed
Settings: MV-4-11 cells, 48 hours

## Nc1ncn([C@@H]2O[C@H](CO)[C@@H](O)[C@H]2O)c(=O)n1 [azacitidine]
  Fold change /veh RGS16 (11720944_at): 1.54
